# Measured values: US5690954A, “Enhanced uptake drug delivery system having microspheres containing an active drug and a bioavailability improving material” (priority 1987, dated 1997)
# Like-named read-outs stand apart in the source and are kept apart here.
# Columns and labels:
# [1] = cited from earlier work
# [2] = Maximum loading capacity of albumin microspheres; type: physicochemical; conditions: emulsion technique
# Method: The active agent can be incorporated into the microspheres during their formulation or sorbed into/onto the system after preparation.
# Albumin microspheres were prepared as described above by an emulsion technique with a stirring speed of 900 rpm and the model drug dissolved in the albumin solution at various concentrations.
# Concentrations of 0.5, 2, 4 and 5% w/v Rose bengal were used. […] Due to the solution characteristics of sodium cromoglycate in water the highest concentration that could be used was […]. Thus, microspheres were manufactured from solutions containing 0.5, 1, 2 and 4% w/v sodium cromoglycate.
# [3] = Zn-/Na-insulin nasal in rabbits, plasma glucose; type: in vivo, New Zealand White rabbits; conditions: rabbit; for shape of plasma glucose curves versus s.c.: intranasal microspheres and LPC 2.5 IU/kg versus 0.6 IU/kg s.c.; for plasma glucose levels: intranasal microspheres and LPC, 2.5 IU/kg; for plasma glucose levels versus simple insulin solution: intranasal solution with 0.2% LPC, about 2.3 IU/kg
# Method: Preparations of Zn-insulin (mainly hexamer form) or Na-insulin (mainly monomer/dimer forms) were administered nasally to rabbits either as free insulin or as a microsphere delivery system with lysophosphatidylcholine (LPC) as a bioavailability increasing material. The experiments were performed in replicate (n=4).
# Non-fasted New Zealand White female rabbits of average weight 3.5 kg were used in this study.
# A 40 IU/ml Zn- or Na-human insulin solution was prepared in buffer (1/75M Na2 HPO4) of pH 7.3-7.4. In some experiments 0.2% LPC was added.
# A total of 200 μl of the solution (100 μl in each nostril) was administered intranasally equivalent to about 2.3 IU/kg using an Eppendorf pipette.
# The rabbits were dosed s.c. with insulin at 0.8 IU/kg or 0.6 IU/kg from a 14 IU/ml or 10 IU/ml aqueous solution, respectively.
# The dose of starch microspheres and insulin was fixed at 2.5 mg/kg and 2.5 IU/kg, respectively. The dose of LPC was 0.2 mg/kg. The average weight of the rabbits was 3.5 kg.
# 25 mg of microspheres were placed in a small glass vial and 250 μl of a 100 IU/ml insulin solution (Na- or Zn-insulin) was added followed by the 2 mg LPC and 250 μl of distilled water. The microspheres were then allowed to stand for 2 h at room temperature in contact with the insulin solution before freeze drying.
# Approximately 15 mg of the freeze dried powder from each individual vial was filled into the applicator tubing, and this was stored in a dessicator until use.
# Each rabbit was held on its back during, and for 10 second after, the application to ensure the delivery of the powdered formulation. Blood samples of 200 μl and 2 ml for glucose and insulin determination, respectively, were collected from the marginal ear vein at 10 and 5 min prior to the administration and at 5, 15, 30, 45, 60, 90, 120 and 180 min post-administration. […] The blood samples for glucose analysis were kept on crushed ice awaiting immediate analysis.
# [4] = sheep, in vivo, 5 mg/kg
# Method: Cross-bred (Suffolk and Texel) sheep were divided into groups of 3 and 2. The mean weight of the sheep was about 40 kg.
# The animals were not fasted prior to the administration of gentamicin. […] The catheter was removed upon completion of the study. […] The sedation lasted about 3 minutes. The animals that received gentamicin by the IV route were also sedated.
# The first group of sheep (n=2) was given 0.25 ml of gentamicin solution (386 mg/ml) (5.0 mg/kg) into each nostril. The second group (n=3) received 0.25 ml of gentamicin solution (386 mg/ml) (5.0 mg/kg) containing 2 mg/ml LPC into each nostril. The third group (n=3) received 5.0 mg/kg gentamicin and 0.2 mg/kg LPC in combination with starch microspheres (1.9 mg gentamicin-/mg starch microspheres). The last group of sheep (n=3) was given 2 mg/kg gentamicin administered intravenously as a solution (40 mg/ml) through the jugular vein. Blood samples (2 ml) were collected through the jugular vein at 0, 8, 16, 24, 32, 45, 60, 90, 120, 180 and 240 min after drug administration. The serum was separated by centrifugation and the samples stored at -20° C. awaiting analysis. No heparin was added to any of the samples. The gentamicin level was determined by the EMIT technique (16).
# [5] = Bioavailability enhancement by microspheres plus bioavailability increasing material (general statement)
# Description: The material selected for these studies has been lysophosphatidylcholine (described above).
# [6] = parameters: species or system Male Wistar rats; conditions: rat, in vivo
# Method: The in situ rat model of Hirai et al (14) was used as modified by Fisher et al (15). Male Wistar rats of about 200 g were anaesthetized by intraperitoneal injection of 60 mg/kg of Pentobarbitone (Sagatal, 60 mg/ml). The rats were tracheotomized, the oesophagus sealed and the carotid artery cannulated.
# A volume of the gentamicin solution containing 0.5% of the drug with and without added lysophosphatidylcholine (LPC) (0.2%) was instilled into the nasal cavity. Blood samples were withdrawn from the carotid artery at 0, 5, 10, 15, 30, 45, 60 and 120 min after drug administration. The gentamicin level was determined by the EMIT method (16).
# [7] = cited from earlier work; remark: listed apart in the source
# [8] = nasal, cited from earlier work
# [9] = hGH nasal, in situ rat model (ELISA); type: in vivo, male Wistar rats
# Method: For all experiments biosynthetic hGH was used.
# As before the experiments were performed using the rat in situ model described by Hirai and modified by Fisher.
# Non-fasted male Wistar rats of about 200 g were divided into groups of 4 and anaesthetized using an i.p. injection of 0.35 ml of pentobarbitone (60 mg/ml).
# Three different hGH preparations were administered to the rats namely a 10 mg/ml solution of hGH in potassium phosphate buffer (1/75M), pH=7.2, as before with the addition of 0.05% LPC and as before with the addition of 0.5% LPC.
# 20 μl (1 mg/kg) of either of the three preparations were administered intranasally by means of a plastic tubing.
# All experiments were performed in replicate. Blood samples, 20 drops were collected and kept on ice at times 0, 5, 10, 20, 30, 40, 50, 60, 90, 120, 180, 240 and 300 min after the application. The plasma was separated and stored at -20° C. until analysis.
# [10] = in vivo
# [11] = Zn-human insulin nasal, in situ rat model, plasma glucose; type: in vivo, male Wistar rats
# Method: The Hirai's in situ model (as modified by Fisher) was used to study the nasal absorption of insulin using non-diabetic male Wistar Rats of 150 g fasted overnight. The rats were anaesthetized with an i.p. injection of 0.25 ml of Pentobarbitone (60 mg/ml).
# A 250 IV/ml solution of Zinc (Zn)-human insulin was prepared in buffer (1/75M Na2 HPO4)) of pH 7.3. In some experiments 0.2% of LPC or for comparison 1% Glycodeoxycholate (GDC) were added to the preparation as absorption enhancers. The experiments were performed in replicate (n=4). 10 μl was administered into the nasal cavity equivalent to 16.67 IV/kg (2.5 IV/rat). Blood samples (0.2 ml) were collected into 5 ml fluoride oxalate tubes at 10, 6 and 2 min pre-administration and at 5, 10, 20, 40, 60, 90, 120, 180, 240 and 300 min post-administration. The blood was replaced by saline administered through the jugular vein.
# [12] = intranasal, simple solution, versus intravenous; cited from earlier work
# [13] = microspheres with lysophosphatidylcholine
# [14] = intranasal solution without enhancer, 1 mg/kg
molecule,measurement,setting,value
CC(=O)[C@H]1CC[C@H]2[C@@H]3CCC4=CC(=O)CC[C@]4(C)[C@H]3CC[C@]12C [progesterone],time of peak concentration,[1]; nasal route,approximately 6 minutes
same,"bioavailability, oral","[1]; oral route, compared to IV administration",~1.2%
same,"effectiveness, oral",[1]; oral route,largely ineffective
O=C([O-])c1c(Cl)c(Cl)c(Cl)c(Cl)c1-c1c2cc(I)c(=O)c(I)c-2oc2c(I)c([O-])c(I)cc12.[Na+].[Na+] [Rose bengal],maximum loading capacity,[2],170 μg per mg albumin microspheres
Na-insulin: Na-insulin (mainly monomer/dimer forms),shape of plasma glucose curves versus s.c.,[3],surprisingly similar to the ones obtained for the s.c. administration
same,plasma glucose levels,[3],even more drastic decreases
same,plasma glucose levels versus simple insulin solution,[3],lowered significantly
gentamicin,bioavailability versus IV dose,[4],57.3%
same,peak blood level,[4],0.4 µg/mL
same,"enhancement concept, outcome",[5]; in vivo,successful
same,bioavailability,[6],poor bioavailability
same,peak level relative to solution alone,[6],five fold greater
same,nasal absorption,"[7]; into the nose, without enhancer",poorly absorbed
same,biological availability with bile salts,"[7]; nasal, added bile salts",enhanced
"NC(=O)CC[C@@H]1NC(=O)[C@H](Cc2ccccc2)NC(=O)[C@H](Cc2ccc(O)cc2)NC(=O)CCSSC[C@@H](C(=O)N2CCC[C@H]2C(=O)N[C@H](CCCN=C(N)N)C(=O)NCC(N)=O)NC(=O)[C@H](CC(N)=O)NC1=O [DDVAP, reference compound]","enhancement concept, outcome",[5]; in vivo,successful
salmon calcitonin,plasma calcitonin increase,[8]; in combination with a surfactant,significant increase
same,AUC increase,[8]; with surfactant enhancer,10 fold
same,plasma calcitonin,[8]; without enhancer,only trace amounts
hGH: biosynthetic hGH,"enhancement concept, outcome",[5]; [13],successful
same,nasal absorption,[9]; [14],not absorbed at any significant degree
same,plasma level peak,[9]; [14],about 3.5 ng/ml
same,effect of 0.05% LPC on absorption,[9]; intranasal with 0.05% LPC,no effect
same,AUC,[9]; intranasal with 0.5% LPC,very significant increase
same,plasma level peak,"[9]; intranasal with 0.5% LPC, 1 mg/kg",about 57 ng/ml
same,bioavailability versus subcutaneous injection,[10],about 20%
same,plasma level with microspheres and LPC,[10],increased considerably
same,shape of profile,[10]; sc,flatter profile
calcitonin: calcitonin [reference compound],"enhancement concept, outcome",[5]; [13],successful
Zn-insulin: Zn-insulin (mainly hexamer form),shape of plasma glucose curves versus s.c.,[3],surprisingly similar to the ones obtained for the s.c. administration
same,plasma glucose levels,[3],even more drastic decreases
same,plasma glucose levels versus simple insulin solution,[3],lowered significantly
same,lowering of plasma glucose level,[11]; intranasal simple solution,not effective
same,plasma glucose level,"[11]; intranasal, with 0.2% LPC",fast and significant drop
CC(C)NC[C@H](O)COc1cccc2ccccc12 (racemic) [propanolol],plasma levels,[12],identical to intravenous administration
O=C(O)c1cc(=O)c2c(OCC(O)COc3cccc4oc(C(=O)O)cc(=O)c34)cccc2o1 [sodium cromoglycate],maximum loading capacity,[2],137 μg per mg albumin microspheres
"CCK: CCK (peptide, UniProt P06307 21-115, looked up) Cholecystokinin: QPVPPADPAGSGLQRAEEAPRRQLRVSQRTDGESRAHLGALLARYIQQARKAPSGRMSIVKNLQNLDPSHRISDRDYMGWMDFGRRSAEEYEYPS","enhancement concept, outcome",[5]; [13],successful
